Laboratory results taken from patent US7109193B2, “Tricyclic diazepines tocolytic oxytocin receptor antagonists” (Wyeth, priority 2001, dated 2006).

Biological target: T1, human oxytocin receptor (Homo sapiens, UniProt P30559)
T1 construct: host or cells: CHO cells (pcDNA3.1 vector)
T1 sequence (P30559 1-389): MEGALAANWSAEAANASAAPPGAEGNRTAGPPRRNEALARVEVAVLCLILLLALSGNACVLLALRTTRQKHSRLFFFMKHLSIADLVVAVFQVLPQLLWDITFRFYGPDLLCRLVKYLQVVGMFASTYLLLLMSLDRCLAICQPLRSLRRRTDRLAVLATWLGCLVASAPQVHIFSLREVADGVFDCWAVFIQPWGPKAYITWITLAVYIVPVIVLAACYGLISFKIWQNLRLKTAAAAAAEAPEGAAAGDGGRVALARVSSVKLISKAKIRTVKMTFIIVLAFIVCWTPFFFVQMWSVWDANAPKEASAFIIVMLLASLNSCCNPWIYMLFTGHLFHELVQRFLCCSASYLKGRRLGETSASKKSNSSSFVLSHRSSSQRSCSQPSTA
Assay: Oxytocin binding in Chinese Hamster Ovary cell membranes expressing human oxytocin receptors
Conditions: 100 nM, CHO cell membranes, [3H]oxytocin, values without parentheses, read-out: OT % inhibition @ 100% nM

SMILES	inhibition at 0.1 µM [%]
Cc1ccccc1-c1ccc(C(=O)N2Cc3ccc(C(=O)NCCC4CCCN4C)n3Cc3ccccc32)cc1 (stereo not shown) [Example 166, 10-[(2′-Methyl[1,1′-biphenyl]-4-yl)carbonyl]-N-[2-(1-methyl-2-pyrrolidinyl)ethyl]-10,11-dihydro-5H-pyrrolo[2,1-c][1,4]benzodiazepine-3-carboxamide]	27
COc1ccccc1-c1ccc(C(=O)N2Cc3ccc(C(=O)NCCC4CCCN4C)n3Cc3ccccc32)cc1OC (stereo not shown) [Example 171, 10-[(2,2′-Dimethoxy[1,1′-biphenyl]-4-yl)carbonyl]-N-[2-(1-methyl-2-pyrrolidinyl)ethyl]-10,11-dihydro-5H-pyrrolo[2,1-c][1,4]benzodiazepine-3-carboxamide]	40
COc1cc(C(=O)N2Cc3ccc(C(=O)NCCC4CCCN4C)n3Cc3ccccc32)ccc1-c1cccc2ccccc12 (stereo not shown) [Example 170, 10-[3-Methoxy-4-(1-naphthyl)benzoyl]-N-[2-(1-methyl-2-pyrrolidinyl)ethyl]-10,11-dihydro-5H-pyrrolo[2,1-c][1,4]benzodiazepine-3-carboxamide]	47
COc1cc(C(=O)N2Cc3ccc(C(=O)NCCC4CCCN4C)n3Cc3ccccc32)ccc1-c1ccccc1C (stereo not shown) [Example 167, 10-[(2-Methoxy-2′-methyl[1,1′-biphenyl]-4-yl)carbonyl]-N-[2-(1-methyl-2-pyrrolidinyl)ethyl]-10,11-dihydro-5H-pyrrolo[2,1-c][1,4]benzodiazepine-3-carboxamide]	60

Next, values leading:

inhibition at 0.1 µM [%]	SMILES
59	Cc1cc(C(=O)N2Cc3ccc(C(=O)NCCC4CCCN4C)n3Cc3ccccc32)ccc1-c1ccccc1C(F)(F)F (stereo not shown) [Example 174, N-[2-(1-Methyl-2-pyrrolidinyl)ethyl]-10-{[2-methyl-2′-(trifluoromethyl)[1,1′-biphenyl]-4-yl]carbonyl}-10,11-dihydro-5H-pyrrolo[2,1-c][1,4]benzodiazepine-3-carboxamide]
62	COc1cc(C(=O)N2Cc3ccc(C(=O)N4CCN(CCN(C)C)CC4)n3Cc3ccccc32)ccc1-c1cccc2ccccc12 [Example 203, {4-[2-(Dimethylamino)ethyl]-1-piperazinyl}{10-[3-methoxy-4-(1-naphthyl)benzoyl]-10,11-dihydro-5H-pyrrolo[2,1-c][1,4]benzodiazepin-3-yl}methanone]
98	COc1ccccc1-c1ccc(C(=O)N2Cc3ccc(C(=O)N(C)C4CCN(C)CC4)n3Cc3ccccc32)cc1 [Example 177, 10-[(2′-Methoxy[1,1′-biphenyl]-4-yl)carbonyl]-N-methyl-N-(1-methyl-4-piperidinyl)-10,11-dihydro-5H-pyrrolo[2,1-c][1,4]benzodiazepine-3-carboxamide]
94	Cc1ccccc1-c1ccc(C(=O)N2Cc3ccc(C(=O)N4CCN(CCN(C)C)CC4)n3Cc3ccccc32)cc1C [Example 198, {4-[2-(Dimethylamino)ethyl]-1-piperazinyl}{10-[(2,2′-dimethyl[1,1′-biphenyl]-4-yl)carbonyl]-10,11-dihydro-5H-pyrrolo[2,1-c][1,4]benzodiazepin-3-yl}methanone]
72	COc1ccccc1-c1ccc(C(=O)N2Cc3ccc(C(=O)N4CCN(CCN(C)C)CC4)n3Cc3ccccc32)cc1OC [Example 204, {10-[(2,2′-Dimethoxy[1,1′-biphenyl]-4-yl)carbonyl]-10,11-dihydro-5H-pyrrolo[2,1-c][1,4]benzodiazepin-3-yl}{4-[2-(dimethylamino)ethyl]-1-piperazinyl}methanone]
-3	C=CCN1CCN(C(=O)c2ccc3n2Cc2ccccc2N(C(=O)c2ccc(-c4ccccc4C)cc2)C3)CC1 [Example 224, (4-Allyl-1-piperazinyl){10-[(2′-methyl[1,1′-biphenyl]-4-yl)carbonyl]-10,11-dihydro-5H -pyrrolo[2,1-c][1,4]benzodiazepin-3-yl}methanone]
